Experiments:
[1] = Stability in aqueous buffer pH 7.4 (HPLC); format: physicochemical; conditions: for Stability in aqueous solution: 1 mM, 250 mM phosphate buffer pH 7.4, 20 °C, 25 h, HPLC
Description: (§1) Phosphate buffer (250 mM, pH 7.4) containing 1 mM platinum compound was incubated at 20 °C, with and without the addition of 10 eq. L-ascorbic acid. […] A gradient of 5–95% over 5 minutes was used. To evaluate the current state of the reaction, the peak area of the parental complex was used.

[2] = Reduction kinetics with 10 eq. ascorbic acid (UHPLC); format: physicochemical
Description: as §1

RKO = test: MTT assay, 72 h, RKO; format: cell-based; conditions: 72 h treatment, mean ± SD
Description: (§2) All cell cultures were grown at 37 °C in a humidified atmosphere containing 5% CO2. HCT116, RKO and HT-29 cells were cultured in McCoy's 5A Modified Media (Sigma-Aldrich, St. Louis, MO, USA) supplemented with 10% heat-inactivated fetal calf serum (FCS, PAA, Linz, Austria) and 2 mM glutamine (Sigma-Aldrich, St. Louis, MO, USA). The murine (Balb/c) colon cancer cell model CT26 (purchased from American Type Culture Collection, Manassas, VA, USA) were cultured in DMEM/F12 supplemented with 10% fetal calf serum (FCS). SW480 and Caco-2 cells were cultured in MEME media supplemented with 10% and 20% FCS, respectively. All cell culture media and reagents were purchased from Sigma-Aldrich Austria. […] The cells were regularly checked for Mycoplasma contamination.
(§3) Depending on their proliferation rate, cells were seeded at a density of 3500–5000 cells per well in 96-well microtiter plates and allowed to adhere overnight. […] Cell viability was determined using the 3-(4,5-dimethylthiazol-2-yl)-2,5-diphenyltetrazolium bromide (MTT) assay (EZ4U, Biomedia, Vienna, Austria) according to the manufacturer's recommendation. Depending on the metabolic capacity, the cell lines were incubated between one and three hours at 37 °C and subsequently absorbance was measured at 450 nm (620 nm as a reference) with a Tecan Reader infinite® M200Pro (Tecan Group Ltd, Switzerland). Data were analyzed using Graph Pad prism (version 8.0.1) by using the point-to-point function. […] Following, dose–response curves were calculated using the point-to-point function.

SW480 = test: MTT assay, 72 h, SW480; format: cell-based; conditions: 72 h treatment, mean ± SD
Description: as §2, §3

HT-29 = test: MTT assay, 72 h, HT-29; format: cell-based; conditions: HT-29, MTT, 72 h treatment, mean ± SD
Description: as §2, §3

HCT116 = test: MTT assay, 72 h, HCT116; format: cell-based; conditions: mean ± SD
Description: as §2, §3

HCT116/OxR = test: MTT assay, 72 h, HCT116/OxR (oxaliplatin-resistant); format: cell-based; conditions: mean ± SD
Description: as §2, §3

CT26 (murine) = test: MTT assay, 72 h, CT26; format: cell-based; conditions: 72 h treatment, mean ± SD
Description: as §2, §3

Caco-2 = test: MTT assay, 72 h, Caco-2; format: cell-based; conditions: Caco-2, MTT, 72 h treatment, mean ± SD
Description: as §2, §3

CT26 allografts [3] = format: in vivo; conditions: Asa 50 mg kg^−1 p.o.
Description: (§4) All experiments were executed according to the regulation of the Ethics Committee for the Care and Use of Laboratory Animals at the Medical University Vienna. 8–12 weeks old BALB/c were kept in a pathogen-free environment with a 12 h light dark-cycle with ad libitum access to food and water. Every procedure was performed in a laminar airflow under sterile condition. Tumor growth and possible side effects of drug treatment were evaluated by daily recording the tumor size by caliper measurement according to the formula length × width^2/2 and parameters of the animal's overall health conditions.
(§5) CT26 cells (5 × 10^5 cells in 50 μl serum-free medium) were injected s.c. into the right flank of female BALB/c mice. […] Asa was treated orally using 50 mg kg^−1 in 5% DMSO/0.9% NaCl. Every day, the animals were monitored for the overall health conditions. Additionally, tumor size was measured. In case of a decreased body weight of ∼20% or ulcerated tumors, animals were sacrificed by cervical dislocation and tumors as well as organs were collected.

CT26 allografts [4] = test: Oral anticancer activity in CT26 allografts; format: in vivo, Balb/c mice
Description: It is well known that COX-2 is involved in the paracrine signaling between immune cells, resulting in a pro-tumorigenic tumor microenvironment.[10,33] Consequently, we got interested in the impact of the Asa ligand on the anticancer activity of the drugs in vivo. […] As Asa is clinically applied p.o., we tested the efficacy of OxAsaOAc and asplatin in an oral application setting. […] For the therapy experiment, the animals were treated with OxAsaOAc and asplatin for five subsequent days over two weeks.
as §4

[5] = Hydrolysis of Asa spiked in fresh murine blood (HPLC-MS); conditions: after 30 min blood clotting and serum extraction
Description: To this end, we spiked Asa in fresh murine blood, isolated the serum, applied the extraction protocol and measured the samples via HPLC-MS.
The extraction method for acetylsalicylic acid and salicylic acid from Grobecker and coworkers was used.[26] For method validation and quantification, 99 μl mouse serum were spiked with Asa or salicylic acid dissolved in 1 μl DMSO in order to obtain a range of concentrations from 1 to 100 μM. Immediately afterwards the samples were acidified with 100 μl HCl/H3PO4 (0.1 M each) and extracted via addition of 600 μl of acetonitrile. After vigorous shaking for 1 min the suspension was stored at 4 °C for ten minutes before being centrifuged at 9500g for 10 min. The supernatant was taken up with a pipette and transferred into an Eppendorf tube with approx. 100 mg of solid NaCl. After vigorous shaking, the samples were again stored at 4 °C for 5 min and centrifuged at 9500 g for 5 min. The organic layer was taken up and measured on an Agilent 1260 Infinity II system using a Waters Acquity UPLC BEH C18 1.7 μm 3.0 × 50 mm column coupled to an Agilent InfinityLab LC/MSD mass spectrometer in negative mode. Milli-Q water, containing 0.1% formic acid, and acetonitrile containing 0.1% formic acid were used as eluents. A gradient of 5–95% acetonitrile in 6 min was used.

[6] = Released salicylic acid in serum of mice after single i.v. administration (UHPLC-MS)
Description: After 10 min, 1 h and 24 h blood was collected via the facial vein. Serum was isolated by centrifugation at 900 g for 10 min for two times and stored at −80 °C. Platinum content was detected by ICP-MS measurements, using an Agilent 7800 (Agilent Technologies, Tokyo, Japan) equipped with an Agilent SPS 4 autosampler (Agilent Technologies, Tokyo, Japan) and a MicroMist nebulizer. The Agilent MassHunter software package (Workstation Software, Version C.01.04, 2018) was used for data evaluation. The ICP-MS operation parameters are given in Table S1. ^† Salicylic acid was extracted and detected as described above.

[7] = Preliminary oral tolerability experiments in tumor-free mice; format: in vivo; conditions: p.o., equivalent to 7.5 mg kg^−1 Asa and 12.5 mg kg^−1 cisplatin
From the text: It is well known that COX-2 is involved in the paracrine signaling between immune cells, resulting in a pro-tumorigenic tumor microenvironment.[10,33] Consequently, we got interested in the impact of the Asa ligand on the anticancer activity of the drugs in vivo. Therefore, we chose immune-competent murine colon cancer CT26 allografts as test system, which were characterized by high COX-2 expression (Fig. S4 ^†). […] Thus, the experiment was stopped on day 19 due to a distinct drop in body weight in these animals. As Asa is clinically applied p.o., we tested the efficacy of OxAsaOAc and asplatin in an oral application setting. […] For the therapy experiment, the animals were treated with OxAsaOAc and asplatin for five subsequent days over two weeks. […] Consequently, we concluded that the drug doses reaching the tumor in these therapy settings were insufficient, which prompted us to aim for carrier systems with enhanced tumor-targeting properties.

[8] = Serum levels and organ distribution of platinum in CT26-bearing mice (ICP-MS); format: in vivo, Balb/c mice; conditions: 24 h after single i.v. dose equimolar to 9 mg kg^−1 oxaliplatin
Description: CT26 cells (5 × 10^5 cells in 50 μl serum-free medium) were injected subcutaneously (s.c.) into the right flank of female BALB/c mice. […] After 24 h, the animals were anesthetized and blood was drawn. The animals were sacrificed by cervical dislocation and tumors as well as organs were collected for measurement with ICP-MS. To isolate serum and blood pellets, blood was centrifuged for 10 min at 3000 rpm. The supernatant characterized as serum was transferred to a new tube and centrifuged again to get rid of residual red blood cells.

CT26 allografts [9] = test: Anticancer activity i.v. in CT26-bearing mice; format: in vivo, Balb/c mice
Description: as §4, §5

albumin = target: T1, albumin (Bos taurus, UniProt P02769); test: Albumin binding in fetal calf serum by SEC-ICP-MS; format: in vitro ADME; conditions: 100 μM in FCS (150 mM phosphate buffer, pH 7.4), 37 °C
T1 construct: Fetal calf serum was purchased from Sigma-Aldrich and buffered with 150 mM phosphate pH 7.4; tissue Sigma-Aldrich; host or cells: fetal calf serum
Description: Fetal calf serum was purchased from Sigma-Aldrich and buffered with 150 mM phosphate pH 7.4 in order to guarantee a stable pH. The platinum(IV) complexes (5 mM) were dissolved in 150 mM phosphate buffer (pH 7.4) and diluted 1 : 50 in the buffered serum to obtain a final concentration of 100 μM. The samples were then incubated in the autosampler at 37 °C and analyzed every 1 h for 6 h. Between each sample a pure water blank was measured. For SEC-ICP-MS measurements an Agilent 1260 Infinity system coupled to an Agilent 7800 ICP-MS equipped with a dynamic reaction cell was used. Oxygen (purity 5.5, Messer Austria GmbH, Gumpoldskirchen, Austria) was used as reaction gas.

[10] = Homo sapiens, HCT-116, 72 h treatment
[11] = compared to all four non-albumin-binding drugs

T1 sequence (P02769 25-607): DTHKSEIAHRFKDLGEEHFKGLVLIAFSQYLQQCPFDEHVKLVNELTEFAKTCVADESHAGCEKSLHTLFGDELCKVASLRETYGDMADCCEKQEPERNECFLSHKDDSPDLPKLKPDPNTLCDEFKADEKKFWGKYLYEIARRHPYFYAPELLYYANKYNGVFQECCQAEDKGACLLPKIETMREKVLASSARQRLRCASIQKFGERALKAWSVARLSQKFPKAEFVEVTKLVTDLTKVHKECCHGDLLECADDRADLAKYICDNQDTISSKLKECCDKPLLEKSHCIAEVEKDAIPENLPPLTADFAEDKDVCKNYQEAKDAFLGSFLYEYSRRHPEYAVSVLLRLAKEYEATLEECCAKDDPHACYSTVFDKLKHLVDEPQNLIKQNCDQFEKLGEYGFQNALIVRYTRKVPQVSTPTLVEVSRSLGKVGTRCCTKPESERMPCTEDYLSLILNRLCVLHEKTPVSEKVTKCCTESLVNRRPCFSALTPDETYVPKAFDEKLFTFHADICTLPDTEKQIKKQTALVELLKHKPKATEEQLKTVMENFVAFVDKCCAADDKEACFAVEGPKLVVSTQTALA

In the case of `CC(=O)[O][Pt-2]12([O]C(C)=O)([NH2+][C@@H]3CCCC[C@H]3[NH2+]1)[O]C(=O)C(=O)[O]2` [Ox(OAc)2], the “Stability in aqueous solution” value [1] is reported as “high stability”, the “Intact complex after 6 h” value ([2]; 1 mM, 250 mM phosphate buffer pH 7.4, 20 °C, 10 eq. ascorbic acid, 6 h) is reported as 97% and the “Intact complex after 24 h” value ([2]; 1 mM, 250 mM phosphate buffer pH 7.4, 20 °C, 10 eq. ascorbic acid, 24 h) is reported as 81%. For the same molecule, the IC50 (RKO) was 9 ± 1 µM, the IC50 (SW480) was 13.2 ± 2.5 µM and the IC50 (HT-29) was 136 ± 34.6 µM. It also gave an IC50 (HCT116; 72 h treatment) of 17.4 ± 2.4 µM, an IC50 (HCT116/OxR; 72 h treatment) of over 100 µM and an IC50 (CT26 (murine)) of 22.5 ± 2.8 µM.
Molecule `N.N.[Cl][Pt][Cl]` [Cisplatin, cisplatin] has an IC50 (RKO) of 1.6 ± 0.3 µM, an IC50 (SW480) of 7.8 ± 1.3 µM and an IC50 (HT-29) of 10.1 ± 0.3 µM. For the same molecule, the IC50 (HCT116; 72 h treatment) was 3.1 ± 0.5 µM, the IC50 (HCT116/OxR; 72 h treatment) was 10.4 ± 1.8 µM and the IC50 (CT26 (murine)) was 1.2 ± 0.2 µM.
Work on `Cc1ccc(-c2cc(C(F)(F)F)nn2-c2ccc(S(N)(=O)=O)cc2)cc1` [Celecoxib] yielded an IC50 (Caco-2; Homo sapiens) of 79.2 ± 3.6 µM, an IC50 (RKO; Homo sapiens) of 79.3 ± 4.9 µM and an IC50 (SW480; Homo sapiens) of 83.1 ± 1.5 µM. For the same molecule, the IC50 (HT-29; Homo sapiens) was 68 ± 6.4 µM, the IC50 (HCT116; [10]) was 76.2 ± 4.3 µM and the IC50 (HCT116/OxR; [10]) was 79.2 ± 2.7 µM. The IC50 (CT26 (murine); Mus musculus) was 60.9 ± 2.5 µM.
For `CC(=O)Oc1ccccc1C(=O)O` [Asa, acetylsalicylic acid], the “Response of tumor model (tumor growth)” value (CT26 allografts [3]) was “responsiveness”, the “Impact on tumor growth” value (CT26 allografts [4]; Asa 15 mg kg^−1 p.o.) was “no impact on tumor growth” and the “Hydrolysis of Asa to salicylic acid” value [5] was “more than half of Asa was hydrolyzed to salicylic acid”.
In the case of `CC(=O)Oc1ccccc1C(=O)[O][Pt]([OH])([Cl])[Cl].N.N` [Asplatin], the “Stability in aqueous solution” value [1] is reported as “high stability”, the “Remaining intact platinum(IV) complex at 1 h” value ([2]; 1 mM, 250 mM phosphate buffer pH 7.4, 20 °C, 10 eq. ascorbic acid, 1 h) is reported as “no remaining intact platinum(IV) complex could be observed” and the “Free salicylic acid in serum, share of administered dose” value ([6]; 10 min after single i.v. dose equimolar to 9 mg kg^−1 oxaliplatin, tumor-free Balb/c mice) is reported as about 30 mol%. For the same molecule, the “Salicylic acid level in serum” value ([6]; 24 h after single i.v. dose equimolar to 9 mg kg^−1 oxaliplatin, below LOD) was under 3 µM, the IC50 (Caco-2) was 6.4 ± 1.1 µM and the IC50 (RKO) was 0.9 µM. For the same molecule, the IC50 (SW480) was 0.6 ± 0.1 µM, the IC50 (HT-29) was 9.2 ± 0.6 µM and the IC50 (HCT116; 72 h treatment) was 2.2 ± 0.1 µM. The IC50 (HCT116/OxR; 72 h treatment) was 8.7 ± 1.8 µM, the IC50 (CT26 (murine)) was 2.5 ± 0.2 µM and the “Oral dose that could be used (tolerability)” value [7] was 20.7 mg/kg. For the same molecule, the “Impact on tumor growth” value (CT26 allografts [4]; asplatin 20.7 mg kg^−1 p.o., five subsequent days over two weeks) was “none of the drugs had any impact on tumor growth”, the “Platinum levels in liver and kidney” value [8] was “exceptionally high” and the Toxicity i.v. (CT26 allografts [9]; reason for lower i.v. dose equimolar to 3 mg kg^−1 cisplatin) was “high toxicity”.
With `CC(=O)Oc1ccccc1C(=O)[O][Pt-2]12([O]C(=O)NCCOCCOCCOCCOCCN3C(=O)C=CC3=O)([NH2+][C@@H]3CCCC[C@H]3[NH2+]1)[O]C(=O)C(=O)[O]2` [OxAsaMal, (OC-6-34)-(2-acetoxybenzoato)[(1R,2R)-1,2-cyclohexanediamino]oxalato[(14-(2,5-dioxo-2,5-dihydro-1H-pyrrol-1-yl)-3,6,9,12-tetraoxatetradecyl)carbamato]platinum(IV)] the “Stability of the platinum core” value ([1]; phosphate-buffered saline (PBS) pH 7.4, 24 h) was “high stability of the platinum core”, the “Reduction behavior (monitored by released Asa and oxaliplatin)” value ([2]; in the presence of ascorbic acid, comparable to OxAsaOAc) was “slow reduction behavior” and the “Fraction bound to the albumin fraction” value (albumin; 0 h time point) was 77%. For the same molecule, the “Fraction bound to the albumin fraction” value (albumin; after 1 h) was 95%, the Platinum plasma levels [8, 11] was “significantly higher plasma levels” and the “Tumor accumulation of platinum” value [8, 11] was “higher tumor accumulation”. The Prolonged overall survival (CT26 allografts [9]; i.v., 4-times over 2 weeks, dose equimolar to 9 mg kg^−1 oxaliplatin, CT26) was about 20 days, the “Tolerability (body weight)” value (CT26 allografts [9]; i.v., 4-times over 2 weeks, doses equimolar to 9 mg kg^−1 oxaliplatin) was “well tolerated” and the “Anticancer activity (tumor growth, overall survival)” value (CT26 allografts [9]; i.v., 4-times over 2 weeks, doses equimolar to 9 mg kg^−1 oxaliplatin, CT26) was “long-lasting disease control over several days”.

Source: article PMC10334471, “Tumor-targeted dual-action NSAID-platinum(IV) anticancer prodrugs” (Inorganic Chemistry Frontiers, 2023)
